Measured values from US20250051321A1, “TRICYCLIC DERIVATIVE AND PREPARATION METHOD THEREFOR AND APPLICATION THEREOF” (SHANGHAI JEMINCARE PHARMACEUTICAL CO., LTD., priority 2021, published 2025).
Like-named read-outs stand apart in the source and are kept apart here.

Key:
[1] = Pharmacokinetic test in mice; assay type: in vivo, ICR mice; conditions: for AUC / C0 / half-life / clearance / Cmax / Tmax / bioavailability: male, ICR, mouse, plasma; for clearance: read-out: CL (mL/min/kg, IV)
Description: Dosage preparation: The dosing solution was prepared on the day of dosing. 2 mg of compound was weighed and dissolved in 5% DMSO+10% solutol+85% saline to prepare a solution for intravenous administration at a concentration of 0.2 mg/mL. 2 mg of compound was weighed and dissolved in 25% PEG 200+75% (0.5% MC) to obtain a solution for oral administration at a concentration of 1 mg/mL.
Six healthy male naïve ICR mice, weighing 25 to 30 g, were divided into two groups (intravenous and oral groups) with three in each group, and administered in a single dose. After 3 days of acclimatization, the mice were fasted overnight (10 to 12 hours) the night before the experiment, but had free access to water during the experiment, and the diet was resumed 4 hours after administration. After intravenous and oral administration, the timer was started. Blood was collected via the orbital venous plexus at the scheduled time points (IV&PO: 0.083, 0.25, 0.5, 1, 2, 4, 6, 8, and 24 hours). 40 μL of whole blood was collected at each point and added to a 1.5 mL EP tube containing sodium heparin. The collected whole blood was vibrated twice on a vortex mixer, mixed well, placed on wet ice, and centrifuged at 8000 rpm for 5 minutes at 4° C. within 1 hour. The supernatant plasma was stored in a −80° C. freezer until processing for analysis.

[2] = system: plasma LPA 18:1 and LPA 18:2; assay: Human plasma ex vivo assay (LPA 18:1 / 18:2 by LC-MS/MS); assay type: biochemical; conditions: 37° C., 2 hours
Summary of the method: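 Human plasma incubated 2 h at 37° C with compound (8 points, 1:3 dilution, top 10 μM, 0.1% DMSO), then quenched with 0.1% FA containing LPA 17:0 internal standard.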

ATX = ATX (Homo sapiens (Human), UniProt Q13822); assay: ATX enzyme inhibition assay (Amplex UltraRed/choline oxidase/HRP, 16:0 Lyso PC substrate); assay type: biochemical
Summary of the method: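 ATX (2× stock […]) preincubated with compound for 10 min at room temperature in assay buffer at pH 8.5 or 7.5. Reaction started with 16:0 Lyso PC, choline oxidase, HRP and Amplex UltraRed (2.5× working stock); fluorescence read kinetically (ex 550/em 590 nm) for 60 min.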

[3] = 5 mg/kg, PO - 5 mpk vs IV - 1 mpk
[4] = LPA 18:1, read-out: Human plasma ex vivo assay IC50 (18:1 LPA)
[5] = LPA 18:2, read-out: Human plasma ex vivo assay IC50 (18:2 LPA)
[6] = assay buffer pH 8.5, read-out: IC50 (nM) pH 8.5
[7] = assay buffer pH 7.5, read-out: IC50 (nM) pH 7.5

| SMILES | AUC ([1]; 1 mg/kg, IV - 1 mpk) [ng·h/mL] | C0 ([1]; 1 mg/kg, IV - 1 mpk) [ng/mL] | half-life ([1]; 1 mg/kg, IV - 1 mpk) [h] | clearance ([1]; 1 mg/kg, IV - 1 mpk) [mL/min/kg] | AUC ([1]; 5 mg/kg, PO - 5 mpk) [ng·h/mL] | Cmax ([1]; 5 mg/kg, PO - 5 mpk) [ng/mL] | Tmax ([1]; 5 mg/kg, PO - 5 mpk) [h] | half-life ([1]; 5 mg/kg, PO - 5 mpk) [h] | bioavailability [1, 3] [%] | IC50 [2, 4] [nM] | IC50 [2, 5] [nM] | IC50 (ATX; [6]) [nM] | also measured |
| --- | --- | --- | --- | --- | --- | --- | --- | --- | --- | --- | --- | --- | --- |
| CN(c1nc(-c2ccc(F)cc2)c(C#N)s1)c1c2c(nc3c(F)cc(N4CC5(CN(C(=O)C(C)(C)O)C5)C4)cc13)CC2 [Example C28] | 14100 | 2110 | 3.63 | 1.21 | 125000 | 10200 | 3 | 2.82 | 176 | 545 | 574 | – | – |
| Cc1cc(N2CC3(CN(C(=O)C(C)(C)O)C3)C2)cc2c(N(C)c3nc(-c4ccc(F)cc4)c(C#N)s3)c3c(nc12)CCO3 [Example C27] | – | – | – | – | 27600 | 2010 | 6.67 | 3.98 | – | – | – | – | – |
| CN(c1nc(-c2ccc(F)cc2)c(C#N)s1)c1c2c(nc3c(F)cc(N4CC5(CN(C(=O)C(C)(C)O)C5)C4)cc13)CCC2 [Example C32] | – | – | – | – | 21400 | 2660 | 0.5 | 2.56 | – | – | – | – | – |
| CN(c1nc(-c2ccc(F)cc2)c(C#N)s1)c1c2c(nc3c(F)cc(N4CC5(CN(C(=O)[C@H]6CCOC6)C5)C4)cc13)COC2 [Example C18] | 3700 | 1940 | 1.82 | 4.59 | 11000 | 3330 | 0.58 | 2.79 | 59.7 | – | – | 15.2 | – |
| CN(c1nc(-c2ccc(F)cc2)c(C#N)s1)c1c2c(nc3c(F)cc(N4CC5(CN(C(=O)C(C)(C)O)C5)C4)cc13)[C@@H](O)CC2 (single isomer, unassigned) [Example E16-a] | 5540 | 3550 | 1.87 | 3.07 | 17000 | 3010 | 0.33 | 2.22 | 61.3 | 381 | 383 | 20.1 | – |
| Cc1cc(N2CC3(CN(C(=O)C(C)(C)O)C3)C2)nc2c(N(C)c3nc(-c4ccc(F)cc4)c(C#N)s3)c3c(nc12)C(O)CC3 (stereo not shown) [Example E32] | – | – | – | – | 8890 | 2040 | 1.58 | 1.51 | – | 202 | 185 | – | – |
| CN(c1nc(-c2ccc(F)cc2)c(C#N)s1)c1c2c(nc3c(F)cc(N4CC5(CN(C(=O)[C@H]6CCOC6)C5)C4)cc13)CCC2 [Example C1] | – | – | – | – | – | – | – | – | – | 521 | 438 | 36.3 | IC50 (ATX; [7]): 63.5 nM; AUCi ([1]; IV - 1 mpk): 5701 ng·h/mL; C0 (IV) ([1]; IV - 1 mpk): 3141 ng/mL; CL (mL/min/kg, IV) ([1]; IV - 1 mpk): 2.92 mL/min/kg; T1/2 ([1]; IV - 1 mpk): 2.15 h; AUCi ([1]; PO - 5 mpk): 7392 ng·h/mL; Cmax (PO) ([1]; PO - 5 mpk): 1903 ng/mL; T1/2 ([1]; PO - 5 mpk): 2.08 h; Tmax (hr, PO) ([1]; PO - 5 mpk): 1.0 h; Bioavailability (%) ([1]; PO - 5 mpk vs IV - 1 mpk): 26% |
| CN(c1nc(-c2ccc(F)cc2)c(C#N)s1)c1c2c(nc3c(F)cc(N4CC5(CN(C(=O)[C@@H]6CCOC6)C5)C4)cc13)CC2 [Example C8] | 2080 | 1800 | 1.23 | 8 | 7940 | 2920 | 0.25 | 2.4 | 76.2 | 168 | 191 | 27.5 | IC50 (ATX; [7]): 67.3 nM |
| CN(c1nc(-c2ccc(F)cc2)c(C#N)s1)c1c2c(nc3c(F)cc(N4CC5(CN(C(=O)C(C)(C)O)C5)C4)cc13)[C@](C)(O)CC2 (single isomer, unassigned) [Example E35-b] | 6770 | 2920 | 2.51 | 2.51 | 14700 | 3140 | 1.58 | 2.05 | 43.5 | 457 | 407 | – | – |
| Cc1cc(N2CC3(CN(C(=O)C(C)(C)O)C3)C2)cc2c(N(C)c3nc(-c4ccc(F)cc4)c(C#N)s3)c3c(nc12)CC3 [Example C26] | – | – | – | – | 124000 | 8390 | 4.08 | 5.13 | – | 588 | 435 | – | – |
| Cc1cc(N2CC3(CN(C(=O)C(C)(C)O)C3)C2)cc2c(N(C)c3nc(-c4ccc(F)cc4)c(C#N)s3)c3c(nc12)COC3 [Example C31] | – | – | – | – | 32300 | 3480 | 0.42 | 3.77 | – | – | – | – | – |
| Cc1cc(N2CC3(CN(C(=O)C(C)(C)O)C3)C2)cc2c(N(C)c3nc(-c4ccc(F)cc4)c(C#N)s3)c3c(nc12)C(O)CC3 (stereo not shown) [Example E26] | – | – | – | – | 31300 | 4430 | 1.75 | 2.16 | – | 516 | 592 | – | – |
| CN(c1nc(-c2ccc(F)cc2)c(C#N)s1)c1c2c(nc3c(F)cc(N4CC5(CN(C(=O)C6(O)CCOCC6)C5)C4)cc13)COC2 [Example C20] | – | – | – | – | – | – | – | – | – | 677 | 362 | 24.2 | – |
